Reference: US4057530A, “2-Phenyl-indole derivatives and process for preparing the same” (priority 1974, dated 1977)
Several values for one entry are separate records, joined by “and”; a condition that tells them apart may be missing. Equal values may be shown once. Entries after “also recorded” stand apart in the source; their conditions may differ.

Experiments:
[1] = Acute toxicity by oral route in mice (LD50); assay type: in vivo; conditions: mouse, in vivo, gummy suspension
Protocol: (§1) The study of the acute toxicity of the stabilizers listed below was carried out by determining the dose of substance which provoked the death of 50% of the treated animals (LD50). A gummy suspension of the substance under study was administered by oral route to groups of at least ten mice and the following results were observed: […]

mice = experiment: Acute toxicity by oral route in mice (LD50); assay type: in vivo; conditions: LD50 study
Protocol: as §1

[2] = Static thermostability of stabilized resin, GARDNER Scale Comparator, Compound B; conditions: 210° C
Protocol: (§2) The stabilizing power of the substances of the invention was studied from two points of view:
(§3) These studies were performed with six different formulae of vinyl resins (hereinafter referred to as Compounds).
(§4) The different compounds were mixed and calendered in a mixer of which the cylinders were heated to 160° C. The rigid sheets so obtained were then heated in an oven to a temperature between 180° C and 215° C, until incipient carbonization.
(§5) A stove with rotating drums, ventilated and equipped with a thermostat was used for this operation. In the trials described hereunder, the behaviour of a sheet containing the stabilizer to be tested was compared to that of a sheet of the same formula but containing 2-phenyl-indole as stabilizer.
(§6) 1. The colouration of the sheets, of which samples were removed from the stove at fixed intervals was compared to a standard scale of colouration, known as the GARDNER Scale, and expressed in terms of the reference figures of the GARDNER Scale.
(§7) Comparisons were made with a GARDNER Scale Comparator which contains 18 filters of coloured glass and which offers the possibility of observing by transparency and in a limited field of view both the sheet and the reference filters.
Compound B was used and the sheets obtained presented the following characteristics: […]

[3] = Thermostability of the stabilizers: thermogravimetric analysis; assay type: physicochemical; conditions: 80° C/hour, under air
Protocol: The thermostability of Stabilizer 8 and that of 2-phenyl-indole were studied by differential thermoanalysis and by thermogravimetric analysis.
This analysis necessitated two series of trials carried out under air and under inert gas (Argon) in order to eliminate any possible effect of oxygen. The results obtained were identical.
The temperature increase rate was 80° C/hour. Thermograms were drawn up under air for both 2-phenyl-indole (i) and for Stabilizer 8 (ii) and enabled the following conclusion to be drawn: […]

[4] = Static thermostability of stabilized resin, simplified method (GARDNER sub-scale), Compound E; conditions: 185° C
Protocol: as §2, §3, §4, §5
(§8) 2. It is also possible to use a simplified method which is more rapid and with which valid results are also obtained: a reference scale is drawn up with sheets of thermally treated polyvinyl chloride, of which the colourations have been definitely determined in GARDNER degrees as above. A GARDNER sub-scale is thus obtained in polyvinyl chloride sheets which can be directly compared to the sheets to be tested without using the comparator.

[5] = Static thermostability of stabilized resin, simplified method (GARDNER sub-scale), Compound A; conditions: 210° C
Protocol: as §2, §3, §4, §5, §8
Finally, trials were carried out with Stabilizers 15, 16 and 17 and with 2-phenyl-indole. Compound A was used and the temperature was 210° C.

[6] = Sublimation of the stabilizers; assay type: physicochemical; conditions: 120° C, cold wall 13° C, 15 Torr, 150 min
Description: A sample of the substance to be tested was introduced into a test tube and heated under reduced pressure. The fraction of sublimated substance was recovered on a mobile cold wall.
After a certain period of time, the sublimated substance was weighed and the result expressed as a percentage of the weight of the starting-material.
The results obtained can only be of relative value, enabling a comparison to be made between two products tested under the same conditions.
Operating conditions (chosen at random).
Temperature of heating 120° C
Temperature of the cold wall
Duration of heating 150 minutes

[7] = Static thermostability of stabilized resin, simplified method (GARDNER sub-scale), Compound C; conditions: 210° C
Protocol: as §2, §3, §4, §5, §8

[8] = assay type: physicochemical
Description: The thermostability of Stabilizer 8 and that of 2-phenyl-indole were studied by differential thermoanalysis and by thermogravimetric analysis. […] Diagrams were made out for 2-phenyl-indole (i) and Compound 8 (ii) and enabled the following conclusions to be drawn: […]

[9] = Static thermostability of stabilized resin, simplified method (GARDNER sub-scale), Compound D; conditions: 185° C
Protocol: as §2, §3, §4, §5, §8

[10] = Sticking of the stabilized material; conditions: cylinders at 210° C, 3 min mixing / 3 min rest
Protocol: Compounds Nos. 609 and 675 were placed in a mixer of the type previously used for studying static thermostability with cylinders at a fixed temperature of 210° C.
They were submitted to alternate periods of 3 minutes of mixing and 3 minutes of rest.

[11] = Static thermostability of stabilized resin, GARDNER Scale Comparator, Compound A; conditions: 185° C
Protocol: as §2, §3, §4, §5, §6, §7

c1ccc(-c2cc3ccccc3[nH]2)cc1 [2-phenyl-indole]
LD50 [1]: > 3000 mg/kg
Toxic symptoms (mice): none
Colouration of sheet (GARDNER Scale) ([2]; 0 min): 1 GARDNER degrees
Colouration of sheet (GARDNER Scale) ([2]; 3 min): 1 GARDNER degrees
Colouration of sheet (GARDNER Scale) ([2]; 6 min): 2 GARDNER degrees
Colouration of sheet (GARDNER Scale) ([2]; 9 min): 3 GARDNER degrees
Colouration of sheet (GARDNER Scale) ([2]; 12 min): 4 GARDNER degrees
Colouration of sheet (GARDNER Scale) ([2]; 15 min): 6 GARDNER degrees
Colouration of sheet (GARDNER Scale) ([2]; 18 min): 8 GARDNER degrees
Colouration of sheet (GARDNER Scale) ([2]; 21 min): > 18 GARDNER degrees
Thickness of sheet ([2]; after 21 min): 0.9 mm
State of sheet ([2]; after 24 min): burnt
Decomposition residue at 210° C [3]: a yellowish residue was, in fact, obtained at 210 °C which constitutes proof of decomposition
Colouration of sheet (GARDNER sub-scale) ([4]; 0 min): < 1 GARDNER degrees
Colouration of sheet (GARDNER sub-scale) ([4]; 10 min): 1 GARDNER degrees
Colouration of sheet (GARDNER sub-scale) ([4]; 20 min): 2 GARDNER degrees
Colouration of sheet (GARDNER sub-scale) ([4]; 30 min): 3 GARDNER degrees
Colouration of sheet (GARDNER sub-scale) ([5]; 0 min): 1 GARDNER degrees
Colouration of sheet (GARDNER sub-scale) ([5]; 3 min): 2 GARDNER degrees and 1 GARDNER degrees
Colouration of sheet (GARDNER sub-scale) ([5]; 3 min, listed as 2-phenyl-inodle): 2 GARDNER degrees
Colouration of sheet (GARDNER sub-scale) ([5]; 6 min): 2.5 GARDNER degrees and 2 GARDNER degrees and 3 GARDNER degrees
Colouration of sheet (GARDNER sub-scale) ([5]; 6 min, listed as 2-phenyl-inodle): 3 GARDNER degrees
Colouration of sheet (GARDNER sub-scale) ([5]; 9 min, listed as 2-phenyl-inodle): 8 GARDNER degrees
Colouration of sheet (GARDNER sub-scale) ([5]; 12 min): 11 GARDNER degrees and 10 GARDNER degrees and 9 GARDNER degrees
Colouration of sheet (GARDNER sub-scale) ([5]; 12 min, listed as 2-phenyl-inodle): 11 GARDNER degrees
Colouration of sheet (GARDNER sub-scale) ([5]; 15 min): 13 GARDNER degrees and 12 GARDNER degrees and 14 GARDNER degrees
Colouration of sheet (GARDNER sub-scale) ([5]; 15 min, listed as 2-phenyl-inodle): 12 GARDNER degrees
Colouration of sheet (GARDNER sub-scale) ([5]; 18 min): burnt
Burning of sheet ([5]; at 15 min): burnt along its edges; also recorded: badly burnt
Percentage of sublimated substance [6]: 26.9%
Colouration of sheet (GARDNER sub-scale) ([7]; 0 min): 1 GARDNER degrees
Colouration of sheet (GARDNER sub-scale) ([7]; 10 min): 1.5 GARDNER degrees
Colouration of sheet (GARDNER sub-scale) ([7]; 20 min): 2 GARDNER degrees
Colouration of sheet (GARDNER sub-scale) ([7]; 30 min): < 3 GARDNER degrees
Colouration of sheet (GARDNER sub-scale) ([7]; 40 min): 3 GARDNER degrees
Colouration of sheet (GARDNER sub-scale) ([7]; 50 min): > 3 GARDNER degrees
Colouration of sheet (GARDNER sub-scale) ([7]; 55 min): 3.5 GARDNER degrees
Colouration of sheet (GARDNER sub-scale) ([7]; 60 min): > 4 GARDNER degrees
Temperature from which it particularly sublimates (melting point) [8]: 185-190 °C
Loss of water at 100° C ([8]; 2° C/minute): no loss of water at 100 °C
Sublimation temperature ([8]; 2° C/minute): 140 °C
Colouration of sheet (GARDNER sub-scale) ([9]; 0 min): 1 GARDNER degrees
Colouration of sheet (GARDNER sub-scale) ([9]; 10 min): 2 GARDNER degrees
Colouration of sheet (GARDNER sub-scale) ([9]; 20 min): > 2 GARDNER degrees
Colouration of sheet (GARDNER sub-scale) ([9]; 30 min): 3 GARDNER degrees
Sticking of the stabilized material [10]: comparable
Colouration of sheet (GARDNER Scale) ([11]; 0 min): 1 GARDNER degrees
Colouration of sheet (GARDNER Scale) ([11]; 6 min): 1 GARDNER degrees
Colouration of sheet (GARDNER Scale) ([11]; 12 min): 3 GARDNER degrees
Colouration of sheet (GARDNER Scale) ([11]; 18 min): 5 GARDNER degrees
Colouration of sheet (GARDNER Scale) ([11]; 24 min): 11 GARDNER degrees
Colouration of sheet (GARDNER Scale) ([11]; 30 min): 12 GARDNER degrees
Colouration of sheet (GARDNER Scale) ([11]; 36 min): 14 GARDNER degrees
Colouration of sheet (GARDNER Scale) ([11]; 42 min): 14 GARDNER degrees
Colouration of sheet (GARDNER Scale) ([11]; 48 min): 14 GARDNER degrees
Colouration of sheet (GARDNER Scale) ([11]; 54 min): burnt

CCCCC(CC)COc1ccc(-c2cc3ccccc3[nH]2)cc1 (centres unmarked) [Stabilizer 7, 2-(2"-ethyl-4'-hexyloxy-phenyl)-indole]
LD50 [1]: > 2000 mg/kg
Toxic symptoms (mice): none
Colouration of sheet (GARDNER sub-scale) ([4]; 0 min): < 1 GARDNER degrees
Colouration of sheet (GARDNER sub-scale) ([4]; 10 min): < 1 GARDNER degrees
Colouration of sheet (GARDNER sub-scale) ([4]; 20 min): < 2 GARDNER degrees
Colouration of sheet (GARDNER sub-scale) ([4]; 30 min): < 3 GARDNER degrees
Colouration given to the co-polymer [9]: less yellow with Stabilizer 7 than with 2-phenyl-indole
Static thermostability compared with 2-phenyl-indole [9]: markedly superior to 2-phenyl-indole
Colouration of sheet (GARDNER sub-scale) ([9]; 0 min): < 1 GARDNER degrees
Colouration of sheet (GARDNER sub-scale) ([9]; 10 min): < 2 GARDNER degrees
Colouration of sheet (GARDNER sub-scale) ([9]; 20 min): 2 GARDNER degrees
Colouration of sheet (GARDNER sub-scale) ([9]; 30 min): < 3 GARDNER degrees
